Legend:
[1] = system: bedstraw; test: Test B pre/postemergence bedstraw; format: in vivo, Galium aparine
How it was run: (§1)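 Test chemicals in a non-phytotoxic solvent mixture with surfactant were sprayed preemergence onto planted seeds and postemergence onto plants 2 to 18 cm tall (1- to 4-leaf stage). After twelve to sixteen days in a greenhouse, injury was visually rated against untreated controls from 0 (no effect) to 10 (complete control).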

[2] = system: blackgrass; test: Test B pre/postemergence blackgrass; format: in vivo, Alopecurus myosuroides
How it was run: as §1

[3] = system: surinam grass; test: Test B pre/postemergence surinam grass; format: in vivo, Brachiaria decumbens; settings: for Plant response rating, B. signalgrass: Postemergence
How it was run: as §1

[4] = system: cocklebur; test: Test B pre/postemergence cocklebur; format: in vivo, Xanthium strumarium
How it was run: as §1

[5] = system: corn; test: Test B pre/postemergence corn; format: in vivo, Zea mays
How it was run: as §1

[6] = system: crabgrass; test: Test B pre/postemergence crabgrass; format: in vivo, Digitaria sanguinalis
How it was run: as §1

[7] = system: giant foxtail; test: Test B pre/postemergence giant foxtail; format: in vivo, Setaria faberii
How it was run: as §1

[8] = system: morningglory; test: Test B pre/postemergence morningglory; format: in vivo, Ipomoea hederacea
How it was run: as §1

[9] = system: pigweed; test: Test B pre/postemergence pigweed; format: in vivo, Amaranthus retroflexus
How it was run: as §1

[10] = system: rape; test: Test B pre/postemergence rape; format: in vivo, Brassica napus
How it was run: as §1

[11] = system: soybean; test: Test B pre/postemergence soybean; format: in vivo, Glycine max
How it was run: as §1

[12] = system: sugar beet; test: Test B pre/postemergence sugar beet; format: in vivo, Beta vulgaris
How it was run: as §1

[13] = system: velvetleaf; test: Test B pre/postemergence velvetleaf; format: in vivo, Abutilon theophrasti
How it was run: as §1

[14] = system: wheat; test: Test B pre/postemergence wheat; format: in vivo, Triticum aestivum
How it was run: as §1

[15] = system: wild oat; test: Test B pre/postemergence wild oat; format: in vivo, Avena fatua
How it was run: as §1

[16] = system: purple nutsedge; test: Test B pre/postemergence purple nutsedge; format: in vivo, Cyperus rotundus; settings: for Plant response rating, Nutsedge: Postemergence, scale of 0 to 10 where 0 is no effect and 10 is complete control
How it was run: as §1

[17] = Preemergence, Rate 62 g/ha, scale 0 to 10 (0 no effect, 10 complete control)
[18] = Preemergence, Rate 125 g/ha, scale 0 to 10, 0 is no effect, 10 is complete control
[19] = Preemergence, Rate 500 g/ha, scale of 0 to 10 where 0 is no effect and 10 is complete control
[20] = Rate 250 g/ha, Postemergence, scale of 0 to 10 where 0 is no effect and 10 is complete control
[21] = Postemergence, Rate 62 g/ha, scale of 0 to 10, 0 is no effect, 10 is complete control
[22] = Postemergence, Rate 125 g/ha, scale 0 to 10, 0 is no effect, 10 is complete control
[23] = Postemergence, Rate 500 g/ha, scale of 0 to 10 where 0 is no effect and 10 is complete control

COCn1c(=O)on(C(=O)N(c2ccccc2)C(C)C)c1=O [Compound 562]
Bedstraw plant response rating [1, 17]: 0 | Bedstraw plant response rating [1, 18]: 0 | Bedstraw plant response rating (0 to 10 scale) ([1]; Preemergence, Rate 250 g/ha): 0 | Bedstraw plant response rating [1, 19]: 0 | Plant response rating, Bedstraw [1, 20]: 4 | Blackgrass plant response rating [2, 21]: 3 | Blackgrass plant response rating [2, 22]: 3 | Plant response rating, Blackgrass [2, 23]: 3 | Blackgrass plant response rating [2, 17]: 4 | Blackgrass plant response rating [2, 18]: 10 | Blackgrass plant response rating (0 to 10 scale) ([2]; Preemergence, Rate 250 g/ha): 10 | Blackgrass plant response rating [2, 19]: 10 | Plant response rating, Blackgrass [2, 20]: 3 | Plant response rating, B. signalgrass ([3]; Rate 500 g/ha, scale of 0 to 10 where 0 is no effect and 10 is complete control): 7 | B. signalgrass plant response rating [3, 17]: 5 | B. signalgrass plant response rating [3, 18]: 8 | B. signalgrass plant response rating (0 to 10 scale, 0 is no effect, 10 is complete control) ([3]; Preemergence, Rate 250 g/ha): 10 | B. signalgrass plant response rating [3, 19]: 10 | Plant response rating, B. signalgrass ([3]; Rate 250 g/ha, scale of 0 to 10 where 0 is no effect and 10 is complete control): 5 | Cocklebur plant response rating [4, 21]: 2 | Cocklebur plant response rating [4, 22]: 2 | Plant response rating, Cocklebur [4, 23]: 2 | Cocklebur plant response rating [4, 17]: 0 | Cocklebur plant response rating [4, 18]: 0 | Cocklebur plant response rating (0 to 10 scale) ([4]; Preemergence, Rate 250 g/ha): 0 | Cocklebur plant response rating [4, 19]: 2 | Plant response rating, Cocklebur [4, 20]: 2 | Corn plant response rating [5, 21]: 0 | Corn plant response rating [5, 22]: 3 | Plant response rating, Corn [5, 23]: 7 | Corn plant response rating [5, 17]: 0 | Corn plant response rating [5, 18]: 3 | Corn plant response rating (0 to 10 scale) ([5]; Preemergence, Rate 250 g/ha): 9 | Corn plant response rating [5, 19]: 9 | Plant response rating, Corn [5, 20]: 7 | Crabgrass plant response rating [6, 21]: 7 | Crabgrass plant response rating [6, 22]: 5 | Plant response rating, Crabgrass [6, 23]: 10 | Crabgrass plant response rating [6, 17]: 8 | Crabgrass plant response rating [6, 18]: 8 | Crabgrass plant response rating (0 to 10 scale) ([6]; Preemergence, Rate 250 g/ha): 10 | Crabgrass plant response rating [6, 19]: 10 | Plant response rating, Crabgrass [6, 20]: 7 | Giant foxtail plant response rating [7, 21]: 7 | Giant foxtail plant response rating [7, 22]: 7 | Plant response rating, Giant foxtail [7, 23]: 8 | Giant foxtail plant response rating [7, 17]: 4 | Giant foxtail plant response rating [7, 18]: 9 | Giant foxtail plant response rating (0 to 10 scale) ([7]; Preemergence, Rate 250 g/ha): 8 | Giant foxtail plant response rating [7, 19]: 8 | Plant response rating, Giant foxtail [7, 20]: 8 | Morningglory plant response rating [8, 21]: 4 | Morningglory plant response rating [8, 22]: 4 | Plant response rating, Morningglory [8, 23]: 10 | Morningglory plant response rating [8, 17]: 0 | Morningglory plant response rating [8, 18]: 0 | Morningglory plant response rating (0 to 10 scale) ([8]; Preemergence, Rate 250 g/ha): 0 | Morningglory plant response rating [8, 19]: 8 | Plant response rating, Morningglory [8, 20]: 10 | Redroot pigweed plant response rating [9, 21]: 9 | Plant response rating, Redroot pigweed [9, 23]: 9 | Redroot pigweed plant response rating [9, 17]: 10 | Redroot pigweed plant response rating [9, 18]: 10 | Redroot pigweed plant response rating (0 to 10 scale) ([9]; Preemergence, Rate 250 g/ha): 10 | Redroot pigweed plant response rating [9, 19]: 10 | Plant response rating, Redroot pigweed [9, 20]: 9 | Rape plant response rating [10, 21]: 0 | Rape plant response rating [10, 22]: 0 | Plant response rating, Rape [10, 23]: 7 | Rape plant response rating [10, 17]: 0 | Rape plant response rating [10, 18]: 6 | Rape plant response rating (0 to 10 scale) ([10]; Preemergence, Rate 250 g/ha): 10 | Rape plant response rating [10, 19]: 10 | Plant response rating, Rape [10, 20]: 0 | Soybean plant response rating [11, 21]: 3 | Plant response rating, Soybean [11, 23]: 5 | Soybean plant response rating [11, 17]: 0 | Soybean plant response rating [11, 18]: 0 | Soybean plant response rating (0 to 10 scale) ([11]; Preemergence, Rate 250 g/ha): 9 | Soybean plant response rating [11, 19]: 9 | Plant response rating, Soybean [11, 20]: 4 | Sugarbeets plant response rating [12, 21]: 3 | Plant response rating, Sugarbeets [12, 23]: 5 | Sugarbeets plant response rating [12, 17]: 6 | Sugarbeets plant response rating [12, 18]: 8 | Sugarbeets plant response rating (0 to 10 scale) ([12]; Preemergence, Rate 250 g/ha): 9 | Sugarbeets plant response rating [12, 19]: 9 | Plant response rating, Sugarbeets [12, 20]: 3 | Velvetleaf plant response rating [13, 21]: 3 | Plant response rating, Velvetleaf [13, 23]: 6 | Velvetleaf plant response rating [13, 17]: 0 | Velvetleaf plant response rating [13, 18]: 0 | Velvetleaf plant response rating (0 to 10 scale) ([13]; Preemergence, Rate 250 g/ha): 0 | Velvetleaf plant response rating [13, 19]: 7 | Plant response rating, Velvetleaf [13, 20]: 6 | Wheat plant response rating [14, 21]: 0 | Plant response rating, Wheat [14, 23]: 5 | Wheat plant response rating [14, 17]: 3 | Wheat plant response rating [14, 18]: 9 | Wheat plant response rating (0 to 10 scale) ([14]; Preemergence, Rate 250 g/ha): 9 | Wheat plant response rating [14, 19]: 9 | Plant response rating, Wheat [14, 20]: 7 | Wild oats plant response rating [15, 21]: 0 | Plant response rating, Wild oats [15, 23]: 4 | Wild oats plant response rating [15, 17]: 4 | Wild oats plant response rating [15, 18]: 9 | Wild oats plant response rating (0 to 10 scale) ([15]; Preemergence, Rate 250 g/ha): 10 | Wild oats plant response rating [15, 19]: 10 | Plant response rating, Wild oats [15, 20]: 0 | Plant response rating, Nutsedge ([16]; Rate 500 g/ha): 5 | Nutsedge plant response rating [16, 17]: 0 | Nutsedge plant response rating [16, 18]: 0 | Nutsedge plant response rating (0 to 10 scale) ([16]; Preemergence, Rate 250 g/ha): 0 | Plant response rating, Nutsedge ([16]; Rate 250 g/ha): 5

From patent US6737383B1, “Herbicidal oxadiazolidines” (priority 1999, dated 2004)
